Reference: patent US20230322788A1, “IMIDAZOTRIAZINE AND PYRROLOPYRIMIDINE DERIVATIVES AS KRAS G12C INHIBITORS” (BeiGene, Ltd., priority 2020, published 2023)

biological target: KRAS (aa 1-169) G12C, C51S, C80L, C118S (Homo sapiens (Human), UniProt P01116, C118S/C51S/C80L/G12C); assay: KRAS G12C SOS1-mediated nucleotide exchange / cRaf RBD binding FRET assay (Biochemical Functional Assay); settings: GDP-loaded KRAS G12C pre-incubated with compound at 24° C. for 3 hrs; SOS1, GTPγS, GST-cRaf RBD; inhibition of nucleotide exchange
Sequence (P01116 other isoform, or with tags, fused parts or gaps G12C/C51S/C80L/C118S): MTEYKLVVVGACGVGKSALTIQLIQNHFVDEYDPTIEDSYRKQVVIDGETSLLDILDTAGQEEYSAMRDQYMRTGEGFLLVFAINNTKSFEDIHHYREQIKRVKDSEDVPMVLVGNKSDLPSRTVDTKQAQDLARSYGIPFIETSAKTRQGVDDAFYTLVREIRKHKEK
Protocol: The KRAS ([…]) G12C, C51S, C80L, C118S with a His-tag was expressed, purified and loaded with GDP in house. All protein and substrate solutions were prepared in assay buffer containing 25 mM HEPES pH7.5, 10 mM MgCl2, and 0.01% Triton X-100. Purified GDP-loaded KRAS (aa 1-169) G12C, C51S, C80L, C118S protein was pre-incubated with a serially diluted compound at 24° C. for 3 hrs. Purified SOS1 (aa 564-1049) protein, GTPYS (Sigma) and GST-cRaf RBD (aa 1-149) were then added to each well and incubated at 24° C. for additional 3 hrs. […] Following the incubation, Mab Anti-6HIS-Tb cryptate (Cisbio) and Mab Anti GST-XL665 (Cisbio) were added and further incubated at 24° C. for 3 hrs. The binding interaction between active GTPγS KRAS G12C and GST-cRaf RBD brings the Tb and XL665 into close proximity enabling an increased FRET signal (Ex337 nm, Em665 nm/620 nm). The inhibition percentage of nucleotide exchange reaction in presence of increasing concentrations of compounds was calculated based on the ratio of fluorescence at 665 nm to that at 620 nm detected on a BMG PHERAstar FSX instrument. The IC50 value of each compound was calculated from fitting the data to the four-parameter logistic model by Dotmatics.

Row | SMILES | IC50
1 | C=CC(=O)N1CCN(c2nc(OC[C@@H]3CCCN3C)nn3c(Cc4ccccc4Cl)cnc23)C[C@@H]1CC#N [Compound A12, 2-((S)-1-acryloyl-4-(7-(2-chlorobenzyl)-2-(((S)-1-methylpyrrolidin-2-yl)methoxy)imidazo[2,1-f][1,2,4]triazin-4-yl)piperazin-2-yl)acetonitrile] | 217 nM
2 | C=CC(=O)N1CCN(c2nc(OC[C@@H]3CCCN3C)nn3c(C4CCc5ccccc54)cnc23)C[C@@H]1CC#N (stereo partly drawn) [Compound A22, 2-((2S)-1-acryloyl-4-(7-(2,3-dihydro-1H-inden-1-yl)-2-(((S)-1-methylpyrrolidin-2-yl)methoxy)imidazo[2,1-f][1,2,4]triazin-4-yl)piperazin-2-yl)acetonitrile] | 201 nM
3 | C=CC(=O)N1CCN(c2nc(OC[C@@H]3CCCN3C)nn3c(Cc4ccccc4C(F)(F)F)cnc23)C[C@@H]1CC#N [Compound A18, 2-((S)-1-acryloyl-4-(2-(((S)-1-methylpyrrolidin-2-yl)methoxy)-7-(2-(trifluoromethyl)benzyl)imidazo[2,1-f][1,2,4]triazin-4-yl)piperazin-2-yl)acetonitrile] | 235 nM
4 | C=CC(=O)N1CCN(c2nc(OC[C@@H]3CCCN3C)nn3c(Cc4c(O)ccc5ccccc45)cnc23)C[C@@H]1CC#N [Compound A21, 2-((S)-1-acryloyl-4-(7-((2-hydroxynaphthalen-1-yl)methyl)-2-(((S)-1-methylpyrrolidin-2-yl)methoxy)imidazo[2,1-f][1,2,4]triazin-4-yl)piperazin-2-yl)acetonitrile] | 20.8 nM
5 | C=CC(=O)N1CCN(c2nc(OC[C@@H]3CC(F)(F)CN3C)nn3c(Cc4cccc5ccccc45)cnc23)C[C@@H]1CC#N [Compound A14, 2-((S)-1-acryloyl-4-(2-(((S)-4,4-difluoro-1-methylpyrrolidin-2-yl)methoxy)-7-(naphthalen-1-ylmethyl)imidazo[2,1-f][1,2,4]triazin-4-yl)piperazin-2-yl)acetonitrile] | 506 nM
6 | C=CC(=O)N1CCN(c2nc(OC[C@@H]3CCCN3C)nc3c(Cc4cc(O)cc5ccccc45)cn(C)c23)C[C@@H]1CC#N [Compound B1, 2-((S)-1-acryloyl-4-(7-((3-hydroxynaphthalen-1-yl)methyl)-5-methyl-2-(((S)-1-methylpyrrolidin-2-yl)methoxy)-5H-pyrrolo[3,2-d]pyrimidin-4-yl)piperazin-2-yl)acetonitrile] | 6.2 nM
7 | C=CC(=O)N1CCN(c2nc(OC[C@@H]3CCCN3C)nn3c(Cc4cccc5c4CCO5)cnc23)C[C@@H]1CC#N [Compound A9, 2-((S)-1-acryloyl-4-(7-((2,3-dihydrobenzofuran-4-yl)methyl)-2-(((S)-1-methylpyrrolidin-2-yl)methoxy)imidazo[2,1-f][1,2,4]triazin-4-yl)piperazin-2-yl)acetonitrile] | 1060 nM
